In the NIST ThermoML archive (doi:10.1021/je101361u):
± gives the expanded uncertainty stated by the source.

Test: xn = mol fraction of the nth substance listed
Conditions: 101.3 kPa, Liquid

COCCOC [1,2-dimethoxyethane] + ClCCCl
mass density [kg/m3]
Conditions	308.15 K	313.15 K	318.15 K	323.15 K	328.15 K	333.15 K
x2 = 0.0251	–	852.25 ± 0.53	846.59 ± 0.53	840.89 ± 0.54	835.13 ± 0.55	829.32 ± 0.55
x2 = 0.05	–	859.77 ± 0.51	854.09 ± 0.52	848.36 ± 0.52	842.55 ± 0.53	836.72 ± 0.54
x2 = 0.0501	–	859.82 ± 0.51	854.13 ± 0.52	848.39 ± 0.52	842.6 ± 0.53	836.76 ± 0.54
x2 = 0.075	–	867.42 ± 0.5	861.7 ± 0.5	855.93 ± 0.51	850.11 ± 0.52	844.24 ± 0.52
x2 = 0.1	–	875.11 ± 0.49	869.35 ± 0.49	863.55 ± 0.5	857.7 ± 0.51	851.8 ± 0.51
x2 = 0.1552	–	892.54 ± 0.46	886.71 ± 0.46	880.84 ± 0.47	874.92 ± 0.48	868.95 ± 0.48
x2 = 0.2001	–	906.96 ± 0.43	901.08 ± 0.44	895.15 ± 0.44	889.17 ± 0.45	883.15 ± 0.46
x2 = 0.2501	–	923.37 ± 0.4	917.42 ± 0.41	911.42 ± 0.42	905.37 ± 0.42	899.27 ± 0.43
x2 = 0.3002	–	940.18 ± 0.38	934.15 ± 0.38	928.08 ± 0.39	921.97 ± 0.4	915.79 ± 0.4
x2 = 0.35	–	957.24 ± 0.35	951.14 ± 0.36	945 ± 0.37	938.81 ± 0.37	932.56 ± 0.38
x2 = 0.4001	–	974.8 ± 0.33	968.62 ± 0.33	962.41 ± 0.34	956.14 ± 0.35	949.82 ± 0.35
x2 = 0.45	–	992.71 ± 0.31	986.46 ± 0.31	980.16 ± 0.32	973.82 ± 0.32	967.42 ± 0.33
x2 = 0.5	1017.36 ± 0.32	1011.06 ± 0.31	1004.73 ± 0.3	998.35 ± 0.3	991.93 ± 0.3	985.45 ± 0.31
x2 = 0.5001	1017.45 ± 0.32	1011.16 ± 0.31	1004.83 ± 0.3	998.45 ± 0.3	992.02 ± 0.3	985.53 ± 0.31
x2 = 0.55	1036.29 ± 0.34	1029.91 ± 0.33	1023.49 ± 0.32	1017.03 ± 0.31	1010.51 ± 0.3	1003.94 ± 0.3
x2 = 0.6001	1055.67 ± 0.36	1049.2 ± 0.35	1042.69 ± 0.34	1036.13 ± 0.33	1029.53 ± 0.32	1022.87 ± 0.32
x2 = 0.65	1075.5 ± 0.38	1068.94 ± 0.37	1062.34 ± 0.36	1055.68 ± 0.35	1048.98 ± 0.35	1042.24 ± 0.34
x2 = 0.7	1095.88 ± 0.41	1089.21 ± 0.4	1082.51 ± 0.39	1075.76 ± 0.38	1068.97 ± 0.37	1062.12 ± 0.36
x2 = 0.75	1116.88 ± 0.43	1110.11 ± 0.42	1103.31 ± 0.41	1096.45 ± 0.4	1089.55 ± 0.39	1082.61 ± 0.38
x2 = 0.8	1138.31 ± 0.46	1131.44 ± 0.45	1124.52 ± 0.44	1117.56 ± 0.43	1110.55 ± 0.42	1103.5 ± 0.41
x2 = 0.85	1160.61 ± 0.49	1153.62 ± 0.48	1146.58 ± 0.47	1139.51 ± 0.46	1132.39 ± 0.45	1125.22 ± 0.44
x2 = 0.9	1183.44 ± 0.51	1176.32 ± 0.5	1169.16 ± 0.49	1161.97 ± 0.48	1154.73 ± 0.47	1147.44 ± 0.46
x2 = 0.925	1195 ± 0.53	1187.82 ± 0.52	1180.61 ± 0.51	1173.35 ± 0.5	1166.05 ± 0.49	1158.7 ± 0.48
x2 = 0.975	1218.9 ± 0.56	1211.59 ± 0.55	1204.25 ± 0.54	1196.86 ± 0.53	1189.43 ± 0.52	1181.97 ± 0.51
